Values quoted from earlier work in patent publication US20090270335A1, “COLLYRIUM FOR DRY EYE” (AQUEOUS PHARMA LIMITED, priority 2006, published 2009).

Tested on: tear secretion
Conditions: topical application
[1] = both in dry eye patients and people not suffering from dry eye

Question: Which tear secretion rate [1] does the source give for `CC[C@H](C)[C@H](NC(=O)[C@H](Cc1ccccc1)NC(=O)[C@H](C)NC(=O)[C@H](CC(=O)O)NC(=O)[C@H](CCCCN)NC(=O)[C@H](CO)NC(=O)[C@@H]1CCCN1C(=O)[C@@H]1CCC(=O)N1)C(=O)NCC(=O)N[C@@H](CC(C)C)C(=O)N[C@@H](CCSC)C(N)=O` [eledoisin, Glu-Pro-Ser-Lys-Asp-Ala-Phe-Ile-Gly-Leu-Met-NH2] here?
Answer: increase

Question: And the tear volume [1]?
Answer: increase

Question: And the “side effect: chemosis” value (patients)?
Answer: not pronounced

Question: What about the “side effect: hyperemia of the conjunctiva” value (patients) of the same molecule?
Answer: observed initially in some patients
